Measurements from paper PMC7495481, “Sequence specificity analysis of the SETD2 protein lysine methyltransferase and discovery of a SETD2 super-substrate” (Communications Biology, 2020).

Tests used:
Format in all cases: biochemical
SETD2 [1] = target: T1, SETD2 (Homo sapiens, UniProt Q9BYW2); assay: Peptide SPOT array methylation of H3K36 (29–43) variants, super-substrate design (Fig. 2a)
T1 construct: SETD2 catalytic SET domain (amino acids 1347–1711, UniProt No: Q9BYW2); made in house; host or cells: E. coli
T1 sequence (Q9BYW2 1347-1711): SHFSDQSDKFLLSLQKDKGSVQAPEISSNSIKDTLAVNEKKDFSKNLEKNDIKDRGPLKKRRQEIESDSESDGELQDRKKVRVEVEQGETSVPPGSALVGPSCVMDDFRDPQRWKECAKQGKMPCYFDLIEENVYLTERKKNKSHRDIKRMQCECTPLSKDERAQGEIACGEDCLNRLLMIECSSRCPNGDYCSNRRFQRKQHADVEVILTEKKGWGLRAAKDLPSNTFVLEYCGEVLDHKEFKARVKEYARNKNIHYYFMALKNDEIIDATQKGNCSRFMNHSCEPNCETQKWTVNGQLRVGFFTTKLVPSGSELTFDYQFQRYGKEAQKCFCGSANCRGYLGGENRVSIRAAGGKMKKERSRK
Excerpt: Based on these observations, we aimed to explore, if better substrates than H3K36 can be designed for SETD2. We synthesized peptide SPOT arrays including H3K36 (29–43) as a positive control and the H3K36A mutant as a negative control, in which up to 5 combined mutations were systematically introduced that converted the original H3K36 residues into residues that are more favored (Fig. 2a and Supplementary Table 1). This peptide array was methylated by SETD2 as described above and the methylation signal was captured by autoradiography.
Fig. 2 Design of an optimized SETD2 peptide substrate and analysis of its methylation. a Variants of the H3K36 (29–43) peptide containing up to five mutations (Supplementary Table 1) were synthesized on a cellulose membrane and methylated by SETD2. The signal of the transferred radioactive methyl groups was detected by autoradiography. Spots A1 and B15 contain the H3K36 sequence, A2 and B16 the H3K36A peptide. Two films with different exposure times are shown to visualize weaker methylated spots as well. b Comparison of the methylation of purified super-substrate (ssK36) and the H3K36 peptides. […] Methylation reactions were conducted using 20 µM peptide and 6 µM enzyme. The lower panels display autoradiography films after different exposure times allowing to compare the methylation levels of the different samples. For comparison, different dilutions of the methylated ssK36 were loaded as indicated. c Time course of ssK36 peptide methylation determined under single turnover conditions using 5 µM substrate and 6 µM enzyme. […] The gels with the radioactive ssK36 (5 µl loaded per well) and H3K36 peptides (20 µl loaded per well) were exposed together to the same x-ray film. […] An enlargement of the H3K36 data with adjusted y-axis scale is shown in Supplementary Fig. 3d.
Peptide arrays containing fifteen amino acid long peptides were synthesized using the SPOT synthesis method[48] with an Autospot peptide array synthesizer (Intavis AG, Köln, Germany). After synthesis, the obtained membranes were pre-incubated in methylation buffer (20 mM Tris/HCl pH 9, 0.01% Triton X-100, 10 mM DTT, 1.5 mM MgCl2) for 5 min on a shaker. Thereafter, the membranes were incubated in methylation buffer supplemented with 0.76 µM radioactively labeled AdoMet (PerkinElmer) and 3–6 µM SETD2 enzyme for 60 min on a shaker. After methylation, the membranes were washed 5 times for 5 min in wash buffer (100 mM NH4HCO3, 1% SDS) and incubated in amplify NAMP100V (GE Healthcare) for 5 min. This was followed by the exposure of the membranes to a hyperfilm^TM high performance autoradiography (GE Healthcare) film at −80 °C in the dark. The films were developed with an Optimax Typ TR machine after different exposue times. For quantification the signal intensities were measured with the Phoretix^TM software and analyzed with Microsoft Excel.

SUV39H2 = assay: Methylation of ssK36 by SUV39H2; details: peer review file Figure R1
SETD2 [2] = target: T1, SETD2; assay: Steady-state peptide methylation kinetics (Michaelis-Menten); details: 20–320 µM peptide; Michaelis-Menten fit; two independent experiments
Method: To further characterize the methylation kinetics of the super-substrate peptide, steady-state methylation experiments were performed using the super-substrate peptide in different concentrations ranging from 20 to 320 µM (Supplementary Fig. 3a). […] To further study the difference in peptide binding, inhibition of SETD2 by ssK36M and H3K36M inhibitor peptides was investigated (Supplementary Fig. 3b and c).
The H3K36 (27–43) and the H3K36M (27–43) peptides were purchased from Intavis AG (Köln, Germany) and the ssK36 peptide (29–43) and the ssK36M peptide (29–43) were from Innovative Peptide Solutions (Berlin, Germany). If not indicated otherwise, peptide methylation reactions were performed using 20 µM peptide and 6 µM SETD2 in 20 µl methylation buffer supplemented with 0.76 µM radioactive labeled AdoMet (PerkinElmer) for 3 h at 25 °C. The reactions were halted by the addition of Tricine-SDS-PAGE loading buffer and incubation for 5 min at 95 °C. […] The signals of the transferred radioactive labeled methyl groups were detected by autoradiography using a hyperfilm^TM high performance autoradiography film (GE Healthcare) at −80 °C in the dark. […]
Multiple turnover kinetics were determined using variable peptide concentrations (20–320 µM). […]

NSD2 = assay: Peptide methylation by NSD2; details: peer review file
Excerpt: We, therefore, repeated the peptide array used for the development of the SETD2 super-substrate, which is shown in Figure 2A of our manuscript for NSD1 and NSD2. […]
that this mutation specifically increases the activity of these two enzymes. In contrast, with […]
combined with H39N/K. Importantly, in case of SETD2 H39N only has an effect in the context of the other mutations in ssK36. We conclude that the ssK36 substrate is specifically optimized for SETD2 as expected given the workflow of our experiments. The finding that H39N increases the activity of NSD1 and NSD2 is interesting and deserves additional work. It […]
conducted with NSD1 and NSD2. The SETD2 panel is taken from the manuscript for comparison. The table indicates the peptide compositions. Note, the gradual increase of methylation with increasing number of mutations in the case of SETD2. In case of NSD1 and NSD2, increased methylation is solely due to the H39N mutation , which has a weaker […]

fold stronger methylation of ssK36 than H3K36 (SETD2 [1]; densitometric analysis of 5 pairs of H3K36 and ssK36 spots on independent arrays, ± SD): 70 ± 10 fold
Km (SETD2 [2]): 45 µM
Sequence: APRFGGVKRPNRYRP [ssK36, super-substrate peptide with four amino acid exchanges (A31R, T32F, K37R, H39N)]
peptide array methylation of H3K36 variants (in words) (SETD2 [1]; SPOT array, 0.76 µM radioactive AdoMet, 3–6 µM SETD2, 60 min, pH 9, autoradiography): one of the most strongly methylated peptides
methylation by SUV39H2 (SUV39H2): Lack of methylation
methylation by NSD2 (NSD2): better substrate than H3K36
